Experimental data reported in patent publication US20170334899A1, “AMINO-SUBSTITUTED ISOTHIAZOLES” (Bayer Pharma Aktiengesellschaft, priority 2014, published 2017).
Values joined by “and” are separate entries in the source; they are usually repeats but may differ in a detail not shown here. Equal entries are not always repeated.

Molecular target: T1, human kinase Mps-1 (Homo sapiens, UniProt P33981)
T1 construct: N-terminally GST-tagged human full length recombinant Mps-1 kinase; GST (N); purchased Invitrogen, Karslruhe, Germany PV4071
T1 sequence (P33981 1-857): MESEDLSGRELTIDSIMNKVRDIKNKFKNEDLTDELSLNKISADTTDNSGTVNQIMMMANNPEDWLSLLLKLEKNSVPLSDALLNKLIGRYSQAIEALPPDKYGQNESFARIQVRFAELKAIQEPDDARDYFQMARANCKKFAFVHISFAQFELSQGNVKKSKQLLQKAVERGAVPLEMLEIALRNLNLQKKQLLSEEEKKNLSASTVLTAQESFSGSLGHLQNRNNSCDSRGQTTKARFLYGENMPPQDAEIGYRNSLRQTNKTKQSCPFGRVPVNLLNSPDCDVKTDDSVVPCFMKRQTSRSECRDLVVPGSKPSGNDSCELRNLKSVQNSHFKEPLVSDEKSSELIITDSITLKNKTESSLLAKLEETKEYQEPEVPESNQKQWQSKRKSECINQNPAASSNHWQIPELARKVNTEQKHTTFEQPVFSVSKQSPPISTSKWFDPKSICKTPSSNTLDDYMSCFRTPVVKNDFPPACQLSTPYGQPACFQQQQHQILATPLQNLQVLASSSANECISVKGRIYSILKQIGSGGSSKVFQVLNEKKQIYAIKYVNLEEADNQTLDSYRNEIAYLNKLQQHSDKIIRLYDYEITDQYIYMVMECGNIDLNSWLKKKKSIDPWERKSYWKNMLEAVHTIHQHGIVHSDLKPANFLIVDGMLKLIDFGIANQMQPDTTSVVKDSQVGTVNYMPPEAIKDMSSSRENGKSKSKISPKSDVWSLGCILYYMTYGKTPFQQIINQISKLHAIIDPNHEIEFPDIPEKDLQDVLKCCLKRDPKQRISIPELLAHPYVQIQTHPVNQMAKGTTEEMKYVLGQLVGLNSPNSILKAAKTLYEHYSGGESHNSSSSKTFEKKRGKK
Test: Mps-1 kinase assay (TR-FRET)
Assay type: biochemical
Conditions: Mps-1 TR-FRET kinase assay; avg; read-out: Mps1 avg (IC50 [mol/l])
Procedure, shortened: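 GST-tagged full-length recombinant human Mps-1 (~0.5 nM) pre-incubated 15 min with compound, then reacted 60 min at 22 °C with 10 μM ATP and 1 μM biotinylated peptide in Hepes pH 7.7 buffer. EDTA-stopped; TR-FRET (Eu anti-phospho-Ser/Thr to SA-XLent) 665/620 nm ratio normalised to no-inhibitor and no-enzyme controls.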

SMILES	IC50
Cc1nsc(Nc2cc(C#N)ccn2)c1C(=O)Nc1cccc(C(=O)OC(C)(C)C)c1 [Example 239, tert-butyl 3-[({5-[(4-cyanopyridin-2-yl)amino]-3-methyl-1,2-thiazol-4-yl}carbonyl)amino]benzoate]	> 20 µM
Cc1nsc(Nc2ccc(C#N)cn2)c1C(=O)Nc1cccc(N)c1 [Example 180, N-(3-aminophenyl)-5-[(5-cyanopyridin-2-yl)amino]-3-methyl-1,2-thiazole-4-carboxamide]	> 20 µM
Cc1nsc(Nc2cncc(C(F)(F)F)n2)c1C(=O)Nc1ccc(OC2CCN(C)CC2)nc1 [Example 219, 3-methyl-N-{6-[(1-methylpiperidin-4-yl)oxy]pyridin-3-yl}-5-{[6-(trifluoromethyl)pyrazin-2-yl]amino}-1,2-thiazole-4-carboxamide]	> 20 µM
Cc1nsc(Nc2cc(C#N)ccn2)c1C(=O)Nc1cccc(C(=O)NC2CC2)c1 [Example 175, 5-[(4-cyanopyridin-2-yl)amino]-N-[3-(cyclopropylcarbamoyl)phenyl]-3-methyl-1,2-thiazole-4-carboxamide]	> 20 µM
Cc1nsc(Nc2cncc(C(F)(F)F)n2)c1C(=O)Nc1ccc(OCCCNC(=O)OC(C)(C)C)nc1 [Example 190, tert-butyl {3-[(5-{[(3-methyl-5-{[6-(trifluoromethyl)pyrazin-2-yl]amino}-1,2-thiazoL-4-yl)carbonyl]amino}pyridin-2-yl)oxy]propyl}carbamate]	> 20 µM
Cc1nsc(Nc2cnccn2)c1C(=O)Nc1ccc(C(=O)OC(C)(C)C)cc1 [Example 184, tert-butyl 4-({[3-methyl-5-(pyrazin-2-ylamino)-1,2-thiazol-4-yl]carbonyl}amino)benzoate]	> 20 µM
Cc1nsc(Nc2ccc(C#N)cn2)c1C(=O)Nc1cccc(NC(=O)OC(C)(C)C)c1 [Example 179, tert-butyl {3-[({5-[(5-cyanopyridin-2-yl)amino]-3-methyl-1,2-thiazol-4-yl}carbonyl)amino]phenyl}carbamate]	> 20 µM
Cc1nsc(Nc2cnc(C(F)(F)F)cn2)c1C(=O)Nc1ccc(C(=O)NCCN2CCCC(F)C2)cc1 (stereo not drawn) [Example 213, N-(4-{[2-(3-fluoropiperidin-1-yl)ethyl]carbamoyl}phenyl)-3-methyl-5-{[5-(trifluoromethyl)pyrazin-2-yl]amino}-1,2-thiazole-4-carboxamide]	> 20 µM
Cc1nsc(Nc2cnc3ccccc3n2)c1C(=O)Nc1ccc(C(=O)OC(C)(C)C)cc1 [Example 181, tert-butyl 4-({[3-methyl-5-(quinoxalin-2-ylamino)-1,2-thiazol-4-yl]carbonyl}amino)benzoate]	> 20 µM
Cc1nsc(Nc2cnc(C(F)(F)F)cn2)c1C(=O)Nc1ccc(OCCNC(=O)OC(C)(C)C)c(F)c1 [Example 215, tert-butyl [2-(2-fluoro-4-{[(3-methyl-5-{[5-(trifluoromethyl)pyrazin-2-yl]amino}-1,2-thiazol-4-yl)carbonyl]amino}phenoxy)ethyl]carbamate]	> 20 µM
Cc1nsc(Nc2cc(C#N)ccn2)c1C(=O)Nc1ccc(Oc2cccc(C(F)(F)F)c2)nc1 [Example 230, 5-[(4-cyanopyridin-2-yl)amino]-3-methyl-N-{6-[3-(trifluoromethyl)phenoxy]pyridin-3-yl}-1,2-thiazole-4-carboxamide]	> 20 µM
Cc1nsc(Nc2cncc(C(F)(F)F)n2)c1C(=O)Nc1ccc(OC2CCN(CC(F)F)CC2)c(F)c1 [Example 224, N-(4-{[1-(2,2-difluoroethyl)piperidin-4-yl]oxy}-3-fluorophenyl)-3-methyl-5-{[6-(trifluoromethyl)pyrazin-2-yl]amino}-1,2-thiazole-4-carboxamide]	> 20 µM
Cc1nsc(Nc2cnc3ccccc3n2)c1C(=O)Nc1ccc(Nc2ccc(F)c(F)c2)nc1 [Example 245, N-{6-[(3,4-difluorophenyl)amino]pyridin-3-yl}-3-methyl-5-(quinoxalin-2-ylamino)-1,2-thiazole-4-carboxamide]	> 20 µM and 19 µM
CC(=O)N1CCC(Oc2ccc(NC(=O)c3c(C)nsc3Nc3cncc(C(F)(F)F)n3)cn2)CC1 [Example 17, N-{6-[(1-Acetylpiperidin-4-yl)oxy]pyridin-3-yl}-3-methyl-5-{[6-(trifluoromethyl)-pyrazin-2-yl]amino}-1,2-thiazole-4-carboxamide]	18 µM
CC(=O)Nc1cc(NC(=O)c2c(C)nsc2Nc2cnc(C(F)(F)F)cn2)ccc1F [Example 206, N-(3-acetamido-4-fluorophenyl)-3-methyl-5-{[5-(trifluoromethyl)pyrazin-2-yl]amino}-1,2-thiazole-4-carboxamide]	> 20 µM
Cc1nsc(Nc2cnc(C(F)(F)F)cn2)c1C(=O)Nc1ccc(OCCNC(=O)OC(C)(C)C)nc1 [Example 192, tert-butyl {2-[(5-{[(3-methyl-5-{[5-(trifluoromethyl)pyrazin-2-yl]amino}-1,2-thiazol-4-yl)carbonyl]amino}pyridin-2-yl)oxy]ethyl}carbamate]	> 20 µM

The remaining lines, values ahead:

IC50	SMILES
> 20 µM	Cc1nsc(Nc2cc(C#N)ccn2)c1C(=O)Nc1ccc(NC2CCCNC2)nc1 (stereo not drawn) [Example 242, 5-[(4-cyanopyridin-2-yl)amino]-3-methyl-N-[6-(piperidin-3-ylamino)pyridin-3-yl]-1,2-thiazole-4-carboxamide]
≥ 20 µM	Cc1nsc(Nc2cncc(C(F)(F)F)n2)c1C(=O)Nc1ccc(OC2CCN(CC(F)(F)F)CC2)nc1 [Example 16, 3-Methyl-N-(6-{[1-(2,2,2-trifluoroethyl)piperidin-4-yl]oxy}pyridin-3-yl)-5-{[6-(trifluoromethyl)pyrazin-2-yl]amino}-1,2-thiazole-4-carboxamide]
> 20 µM	Cc1nsc(Nc2cnc(C(F)(F)F)cn2)c1C(=O)Nc1ccc(OCC2CCN(C(=O)OC(C)(C)C)CC2)nc1 [Example 227, tert-butyl 4-{[(5-{[(3-methyl-5-{[5-(trifluoromethyl)pyrazin-2-yl]amino}-1,2-thiazol-4-yl)carbonyl]amino}pyridin-2-yl)oxy]methyl}piperidine-1-carboxylate]
> 20 µM	Cc1nsc(Nc2cnc3ccccc3n2)c1C(=O)Nc1ccc(NC2CCCN(C(=O)OC(C)(C)C)C2)nc1 (stereo not drawn) [Example 241, tert-butyl 3-{[5-({[3-methyl-5-(quinoxalin-2-ylamino)-1,2-thiazol-4-yl]carbonyl}amino)pyridin-2-yl]amino}piperidine-1-carboxylate]
> 20 µM	Cc1nsc(Nc2cnc3ccccc3n2)c1C(=O)Nc1ccc(Oc2ccc(SC(F)(F)F)cc2)nc1 [Example 233, 3-methyl-5-(quinoxalin-2-ylamino)-N-(6-{4-[(trifluoromethyl)sulfanyl]phenoxy}pyridin-3-yl)-1,2-thiazole-4-carboxamide]
> 20 µM	Cc1nsc(Nc2cncc(C(F)(F)F)n2)c1C(=O)Nc1ccc(OCCN)nc1 [Example 196, N-[6-(2-aminoethoxy)pyridin-3-yl]-3-methyl-5-{[6-(trifluoromethyl)pyrazin-2-yl]amino}-1,2-thiazole-4-carboxamide]
17 µM	Cc1nsc(Nc2cncc(C(F)(F)F)n2)c1C(=O)Nc1ccc(F)c(C(N)=O)c1 [Example 204, N-(3-carbamoyl-4-fluorophenyl)-3-methyl-5-{[6-(trifluoromethyl)pyrazin-2-yl]amino}-1,2-thiazole-4-carboxamide]
≥ 20 µM	Cc1nsc(Nc2cncc(C(F)(F)F)n2)c1C(=O)Nc1ccc(OC2CCNCC2)nc1 [Example 13, 3-Methyl-N-[6-(piperidin-4-yloxy)pyridin-3-yl]-5-{[6-(trifluoromethyl)pyrazin-2-yl]-amino}-1,2-thiazole-4-carboxamide]
